In patent publication US20230257372A1 (CHONG KUN DANG PHARMACEUTICAL CORP., priority 2020, published 2023):
Like-named read-outs stand apart in the source and are kept apart here.

Legend:
human recombinant HDAC1 = molecular target: T1, human recombinant HDAC1 (Homo sapiens, UniProt Q13547); assay: HDAC1 enzyme activity inhibition (HDAC Fluorimetric Drug Discovery Kit); assay type: biochemical; details: read-out: HDAC1
T1 construct: purchased Enzo Life Science, Inc. BML-SE456
In short: (§1)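 Compounds in 5-fold dilution series were incubated with […] enzyme and 10 μM substrate at 30° C for 60 minutes. Fluor de Lys Developer II was then added for 30 minutes to stop the reaction and develop the fluorescent signal.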

human recombinant HDAC6 = molecular target: T2, human recombinant HDAC6 (Homo sapiens, UniProt Q9UBN7); assay: HDAC6 enzyme activity inhibition (HDAC Fluorimetric Drug Discovery Kit); assay type: biochemical
T2 construct: purchased Calbiochem Inc. 382180
T2 sequence (Q9UBN7 1-1215): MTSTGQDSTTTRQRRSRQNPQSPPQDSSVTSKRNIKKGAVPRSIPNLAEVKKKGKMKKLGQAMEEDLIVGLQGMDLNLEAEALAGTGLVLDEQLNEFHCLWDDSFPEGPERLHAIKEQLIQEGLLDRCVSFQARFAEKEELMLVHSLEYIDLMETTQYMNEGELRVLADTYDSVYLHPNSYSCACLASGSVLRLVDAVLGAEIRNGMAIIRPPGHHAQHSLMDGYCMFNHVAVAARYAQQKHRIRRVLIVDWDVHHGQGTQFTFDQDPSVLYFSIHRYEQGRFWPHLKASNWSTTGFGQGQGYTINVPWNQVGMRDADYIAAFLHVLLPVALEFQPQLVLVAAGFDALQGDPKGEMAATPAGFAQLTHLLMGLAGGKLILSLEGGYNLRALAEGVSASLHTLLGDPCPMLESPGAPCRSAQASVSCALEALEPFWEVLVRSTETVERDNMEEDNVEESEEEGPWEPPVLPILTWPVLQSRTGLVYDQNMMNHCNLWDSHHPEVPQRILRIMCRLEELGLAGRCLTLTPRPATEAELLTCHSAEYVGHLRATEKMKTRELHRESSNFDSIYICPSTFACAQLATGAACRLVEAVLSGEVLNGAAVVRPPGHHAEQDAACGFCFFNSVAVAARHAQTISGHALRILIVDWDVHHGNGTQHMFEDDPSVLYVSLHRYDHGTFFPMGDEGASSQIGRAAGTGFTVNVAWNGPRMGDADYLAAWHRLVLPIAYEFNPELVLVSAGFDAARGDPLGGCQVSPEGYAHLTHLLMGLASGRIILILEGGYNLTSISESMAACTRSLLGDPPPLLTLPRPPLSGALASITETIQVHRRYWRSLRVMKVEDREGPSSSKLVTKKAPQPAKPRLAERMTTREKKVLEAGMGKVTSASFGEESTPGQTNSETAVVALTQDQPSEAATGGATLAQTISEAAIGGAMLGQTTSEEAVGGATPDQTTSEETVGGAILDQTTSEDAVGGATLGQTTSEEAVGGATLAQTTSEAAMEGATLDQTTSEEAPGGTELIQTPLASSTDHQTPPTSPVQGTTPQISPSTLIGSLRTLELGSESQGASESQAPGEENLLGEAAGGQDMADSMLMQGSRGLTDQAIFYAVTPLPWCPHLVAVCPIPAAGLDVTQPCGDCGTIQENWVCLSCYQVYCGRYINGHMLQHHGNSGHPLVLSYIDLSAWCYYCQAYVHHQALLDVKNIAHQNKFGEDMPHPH
In short: as §1

[1] = test system: hippocampal neurons from a Sprague-Dawley (SD) rat fetus; assay: Effect of HDAC6-specific inhibitor on axonal transport of mitochondria in amyloid-beta treated neurons; assay type: cell-based; details: transport velocity of mitochondria in neuronal axon after normalization; vehicle = 100%, amyloid beta treatment group = 0%; compound treatment for three hours
Procedure: On the 17th to 18th days (E17-18) of insemination, the hippocampal neurons from a Sprague-Dawley (SD) rat fetus were cultured in a culture container for imaging, which had been coated with extracellular matrix, and were treated with amyloid-beta protein fragments at a concentration of […]. In 24 hours later, the neurons were treated with the compound on the 8th day of in vitro culture. In three hours later, the resulting neurons were treated with MitoTracker Red CMXRos (Life Technologies, NY, USA) for last five minutes to stain mitochondria. An image on the axonal transport of stained neuron mitochondria was taken with a confocal microscope (Leica SP8; Leica microsystems, UK) at an interval of one second for one minute to measure a transport velocity of each mitochondria per second with an IMARIS analysis program (BITPLANE, Zurich, Switzerland).
In result, after setting a section, in which the group treated with amyloid-beta had shown a significant decrease in the transport velocity of mitochondria compared to a vehicle, it was confirmed for 1,3,4-oxadiazole triazol derivative compounds of the present invention, stereoisomers thereof or pharmaceutically acceptable salts thereof that the vehicles is represented as 100%, the amyloid beta treatment group is represented as 0%, a velocity distribution of the compound after normalization is represented as *, 0%˜50%; **, 50%˜100%; ***, >100%.

[2] = human recombinant HDAC1, IC50 calculated with GraphPad Prism
[3] = human recombinant HDAC6, IC50 calculated with GraphPad Prism
[4] = human recombinant HDAC1, Fluor de Lys substrate, 30° C. 60 minutes
[5] = human recombinant HDAC6, same protocol as HDAC1

T1 sequence (Q13547 whole entry): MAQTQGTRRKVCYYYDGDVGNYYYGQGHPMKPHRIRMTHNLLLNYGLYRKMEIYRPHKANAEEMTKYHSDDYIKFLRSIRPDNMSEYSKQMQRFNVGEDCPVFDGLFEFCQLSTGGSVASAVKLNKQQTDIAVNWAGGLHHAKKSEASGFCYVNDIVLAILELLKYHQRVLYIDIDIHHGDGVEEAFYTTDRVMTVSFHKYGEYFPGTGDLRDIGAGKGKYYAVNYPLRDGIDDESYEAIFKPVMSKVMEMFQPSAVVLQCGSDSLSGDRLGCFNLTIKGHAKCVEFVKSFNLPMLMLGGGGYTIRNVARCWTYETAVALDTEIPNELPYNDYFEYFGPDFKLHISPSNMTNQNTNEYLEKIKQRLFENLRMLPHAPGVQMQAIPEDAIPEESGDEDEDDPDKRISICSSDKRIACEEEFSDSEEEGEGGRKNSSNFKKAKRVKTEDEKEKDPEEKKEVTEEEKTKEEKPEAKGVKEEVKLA

SMILES | IC50 (human recombinant HDAC1; [2]) | HDAC6 selectivity (fold) (human recombinant HDAC6; HDAC1 IC50 / HDAC6 IC50) | IC50 (human recombinant HDAC6; [3]) | IC50 (human recombinant HDAC1; [4]) | HDAC6 selectivity (fold) (human recombinant HDAC6; HDAC6 over HDAC1) | IC50 (human recombinant HDAC6; [5]) | Velocity distribution (%) [1]
CC(=O)N1CCN(c2cccc(-c3cn(Cc4ccc(-c5nnc(C(F)F)o5)cn4)nn3)c2)CC1 [Compound 3990, 1-(4-(3-(1-((5-(5-(difluoromethyl)-1,3,4-oxadiazol-2-yl)pyridin-2-yl)methyl)-1H-1,2,3-triazol-4-yl)phenyl)piperazin-1-yl)ethan-1-one] | > 50000 nM | 2631 fold | 19 nM |  |  |  | ** (**, 50%˜100%)
CN1CCN(c2cccc(-c3cn(Cc4ccc(-c5nnc(C(F)F)o5)cn4)nn3)c2)CC1 [Compound 3867, 2-(difluoromethyl)-5-(6-((4-(3-(4-methylpiperazin-1-yl)phenyl)-1H-1,2,3-triazol-1-yl)methyl)pyridin-3-yl)-1,3,4-oxadiazole] | > 50000 nM | 1953 fold | 25.6 nM |  |  |  | ** (**, 50%˜100%)
FC(F)c1nnc(-c2ccc(Cn3cc(-c4cncc(Cl)c4)nn3)nc2)o1 [Compound 3883, 2-(6-((4-(5-chloropyridin-3-yl)-1H-1,2,3-triazol-1-yl)methyl)pyridin-3-yl)-5-(difluoromethyl)-1,3,4-oxadiazole] | > 50000 nM | 1474 fold | 33.9 nM |  |  |  | * (*, 0%˜50%)
CCC(=O)N1CCN(c2cccc(-c3cn(Cc4ccc(-c5nnc(C(F)F)o5)cn4)nn3)c2)CC1 [Compound 3991] | > 50000 nM | 1773 fold | 28.2 nM |  |  |  | ** (**, 50%˜100%)
Fc1ccccc1-c1cn(Cc2ccc(-c3nnc(C(F)F)o3)cn2)nn1 [Compound 3853, 2-(difluoromethyl)-5-(6-((4-(2-fluorophenyl)-1H-1,2,3-triazol-1-yl)methyl)pyridin-3-yl)-1,3,4-oxadiazole] | > 50000 nM | 1612 fold | 31 nM |  |  |  | ** (**, 50%˜100%)
Cn1ncc2c(-c3cn(Cc4ccc(-c5nnc(C(F)F)o5)cn4)nn3)cccc21 [Compound 3842, 2-(difluoromethyl)-5-(6-((4-(1-methyl-1H-indazol-4-yl)-1H-1,2,3-triazol-1-yl)methyl)pyridin-3-yl)-1,3,4-oxadiazole] | > 50000 nM | 2032 fold | 24.6 nM |  |  |  | ** (**, 50%˜100%)
FC(F)c1nnc(-c2ccc(Cn3cc(-c4ccc5cc[nH]c5c4)nn3)cc2)o1 [Compound 4076, 2-(4-((4-(1H-indol-6-yl)-1H-1,2,3-triazol-1-yl)methyl)phenyl)-5-(difluoromethyl)-1,3,4-oxadiazole] | > 50000 nM | 739 fold | 67.6 nM |  |  |  | *** (***, >100%)
CCn1ccc2ccc(-c3cn(Cc4ccc(-c5nnc(C(F)F)o5)cn4)nn3)cc21 [Compound 4136, 2-(difluoromethyl)-5-(6-((4-(1-ethyl-1H-indol-6-yl)-1H-1,2,3-triazol-1-yl)methyl)pyridin-3-yl)-1,3,4-oxadiazole] | > 50000 nM | 2873 fold | 17.4 nM |  |  |  | ** (**, 50%˜100%)
FC(F)c1nnc(-c2ccc(Cn3cc(-c4cccc(CN5CCOCC5)c4)nn3)nc2)o1 [Compound 3916, 4-(3-(1-((5-(5-(difluoromethyl)-1,3,4-oxadiazol-2-yl)pyridin-2-yl)methyl)-1H-1,2,3-triazol-4-yl)benzyl)morpholine] | > 50000 nM | 1754 fold | 28.5 nM |  |  |  | *** (***, >100%)

Further lines, with some results ahead:

IC50 (human recombinant HDAC1; [2]) | HDAC6 selectivity (fold) (human recombinant HDAC6; HDAC1 IC50 / HDAC6 IC50) | IC50 (human recombinant HDAC6; [3]) | IC50 (human recombinant HDAC1; [4]) | HDAC6 selectivity (fold) (human recombinant HDAC6; HDAC6 over HDAC1) | IC50 (human recombinant HDAC6; [5]) | SMILES | Velocity distribution (%) [1]
 |  |  | > 50000 nM | 633 fold | 78.9 nM | Fc1cc(-c2nnc(C(F)F)o2)cnc1Cn1cc(-c2ccccn2)nn1 [Compound 17983, 2-(difluoromethyl)-5-(5-fluoro-6-((4-(pyridin-2-yl)-1H-1,2,3-triazol-1-yl)methyl)pyridin-3-yl)-1,3,4-oxadiazole] | *** (***, >100%)
> 50000 nM | 1479 fold | 33.8 nM |  |  |  | FC(F)c1nnc(-c2ccc(Cn3cc(-c4ccc5cc[nH]c5c4)cn3)nc2)o1 [Compound 4208] | ** (**, 50%˜100%)
> 50000 nM | 917 fold | 54.5 nM |  |  |  | FC(F)c1nnc(-c2ccc(Cn3cc(-c4cccc(N5CCN(C6CCC6)CC5)c4)nn3)cc2)o1 [Compound 4371, 2-(4-((4-(3-(4-cyclobutylpiperazin-1-yl)phenyl)-1H-1,2,3-triazol-1-yl)methyl)phenyl)-5-(difluoromethyl)-1,3,4-oxadiazole] | ** (**, 50%˜100%)
> 50000 nM | 963 fold | 51.9 nM |  |  |  | CC(C)N1CCc2ccc(-c3cn(Cc4ccc(-c5nnc(C(F)F)o5)cn4)nn3)cc2C1 [Compound 4210, 2-(difluoromethyl)-5-(6-((4-(2-isopropyl-1,2,3,4-tetrahydroisoquinolin-7-yl)-1H-1,2,3-triazol-1-yl)methyl)pyridin-3-yl)-1,3,4-oxadiazole] | * (*, 0%˜50%)
 |  |  | > 50000 nM | 770 fold | 64.9 nM | CN(C)Cc1ccc(-c2cn(Cc3ncc(-c4nnc(C(F)F)o4)cc3F)nn2)cc1 [Compound 18308, 1-(4-(1-((5-(5-(difluoromethyl)-1,3,4-oxadiazol-2-yl)-3-fluoropyridin-2-yl)methyl)-1H-1,2,3-triazol-4-yl)phenyl)-N,N-dimethylmethanamine] | *** (***, >100%)
> 50000 nM | 2092 fold | 23.9 nM |  |  |  | CN1CCN(c2cccc(-c3cn(Cc4ccc(-c5nnc(C(F)F)o5)cc4F)nn3)c2)CC1 [Compound 4337, 2-(difluoromethyl)-5-(3-fluoro-4-((4-(3-(4-methylpiperazin-1-yl)phenyl)-1H-1,2,3-triazol-1-yl)methyl)phenyl)-1,3,4-oxadiazole] | *** (***, >100%)
> 50000 nM | 1547 fold | 32.3 nM |  |  |  | CC(C)N1CC(N2CCC(c3cccc(-c4cn(Cc5ccc(-c6nnc(C(F)F)o6)cc5F)nn4)c3)CC2)C1 [Compound 4296] | ** (**, 50%˜100%)
 |  |  | > 50000 nM | 806 fold | 62 nM | Fc1cc(-c2nnc(C(F)F)o2)ccc1Cn1cc(-c2ccc(CN3CC[C@H](F)C3)cn2)nn1 [Compound 18185, (S)-2-(difluoromethyl)-5-(3-fluoro-4-((4-(5-((3-fluoropyrrolidin-1-yl)methyl)pyridin-2-yl)-1H-1,2,3-triazol-1-yl)methyl)phenyl)-1,3,4-oxadiazole] | *** (***, >100%)
